Measured values: ChEMBL document CHEMBL5390265, “Design, Synthesis, and Pharmacological Evaluation of Multisubstituted Pyrido[4,3-d]pyrimidine Analogues Bearing Deuterated Methylene Linkers as Potent KRASG12D Inhibitors” (J Med Chem, 2023)
Blank lines part the entries; values can stand above or below the compound they belong to. Calls of active or inactive are those of the source. No cut-off for these calls is given here.

Assays:
ASPC1 [1] = test: Antitumor activity against human ASPC1 cells xenografted in mouse assessed as inhibition of Ki-67 expression level at 20 mg/kg,ip administrated twice daily for 20 consecutive days by immunohistochemistry analysis; format: functional, organism-based; details: tested as the 2H-labelled form
GTPase KRas [2] = biological target: T1, GTPase KRas (Homo sapiens, UniProt P01116); test: Inhibition of KRAS in human ASPC1 cells assessed as downregulation of ERK phosphorylation incubated for 3 hrs by immunoblotting analysis; format: cell-based; details: tested as the 2H-labelled form
ASPC1 [3] = test: Antitumor activity against human ASPC1 cells xenografted in mouse assessed as inhibition of ERK phosphorylation level at 20 mg/kg,ip administrated twice daily for 20 consecutive days by immunoblotting analysis; format: functional, organism-based; details: tested as the 2H-labelled form
GTPase KRas [4] = biological target: T1, GTPase KRas; test: Inhibition of KRAS in human AGS cells assessed as downregulation of ERK phosphorylation at 0.65 nM incubated for 3 hrs by immunoblotting analysis; format: cell-based; details: tested as the 2H-labelled form
GTPase KRas [5] = biological target: T1, GTPase KRas; test: Inhibition of KRAS in human ASPC1 cells assessed as downregulation of AKT phosphorylation at 0.65 nM incubated for 3 hrs by immunoblotting analysis; format: cell-based; details: tested as the 2H-labelled form
ASPC1 [6] = test: Antitumor activity against human ASPC1 cells xenografted in mouse assessed as inhibition of ERK phosphorylation level at 10 mg/kg,ip administrated twice daily for 20 consecutive days by immunoblotting analysis; format: functional, organism-based; details: tested as the 2H-labelled form
GTPase KRas [7] = biological target: T1, GTPase KRas; test: Inhibition of KRAS in human AGS cells assessed as downregulation of AKT phosphorylation at 0.65 nM incubated for 3 hrs by immunoblotting analysis; format: cell-based; details: tested as the 2H-labelled form
ASPC1 [8] = test: Antitumor activity against human ASPC1 cells xenografted in mouse assessed as inhibition of Ki-67 expression level at 10 mg/kg,ip administrated twice daily for 20 consecutive days by immunohistochemistry analysis; format: functional, organism-based; details: tested as the 2H-labelled form
ASPC1 [9] = test: Antitumor activity against human ASPC1 cells xenografted in mouse assessed as inhibition of AKT phosphorylation level at 10 mg/kg,ip administrated twice daily for 20 consecutive days by immunoblotting analysis; format: functional, organism-based; details: tested as the 2H-labelled form
GTPase KRas [10] = biological target: T1, GTPase KRas; test: Inhibition of KRAS in human AGS cells assessed as downregulation of ERK phosphorylation incubated for 3 hrs by immunoblotting analysis; format: cell-based; details: tested as the 2H-labelled form
GTPase KRas [11] = biological target: T1, GTPase KRas; test: Inhibition of KRAS in human ASPC1 cells assessed as downregulation of AKT phosphorylation incubated for 3 hrs by immunoblotting analysis; format: cell-based; details: tested as the 2H-labelled form
GTPase KRas [12] = biological target: T1, GTPase KRas; test: Inhibition of KRAS in human AGS cells assessed as downregulation of AKT phosphorylation incubated for 3 hrs by immunoblotting analysis; format: cell-based; details: tested as the 2H-labelled form
ASPC1 [13] = test: Antitumor activity against human ASPC1 cells xenografted in mouse assessed as inhibition of AKT phosphorylation level at 20 mg/kg,ip administrated twice daily for 20 consecutive days by immunoblotting analysis; format: functional, organism-based; details: tested as the 2H-labelled form
GTPase KRas [14] = biological target: T1, GTPase KRas; test: Inhibition of KRAS in human ASPC1 cells assessed as downregulation of ERK phosphorylation at 0.65 nM incubated for 3 hrs by immunoblotting analysis; format: cell-based; details: tested as the 2H-labelled form
GTPase KRas [15] = biological target: T1, GTPase KRas; test: Inhibition of KRAS in human ASPC1 cells assessed as downregulation of ERK phosphorylation at 6.25 to 100 nM incubated for 3 hrs by immunoblotting analysis; format: cell-based; details: dose 6.25-100 nM, tested as the 2H-labelled form
GTPase KRas [16] = biological target: T1, GTPase KRas; test: Inhibition of recombinant human GTP-bound KRAS wild type (1 to 169 residues) incubated for 1 hr by HTRF assay
ASPC1 [17] = test: Antitumor activity against human ASPC1 cells xenografted in mouse assessed as inhibition of tumor growth at 20 mg/kg,ip administrated twice daily for 20 consecutive days relative to control; format: functional; details: read-out: TGI
[18] = Half life in Sprague-Dawley rat at 1 mg/kg,iv measured upto 24 hrs by LC-MS/MS analysis; format: ADME, organism-based; details: in vivo
ASPC1 [19] = test: Antiproliferative activity against human ASPC1 cells harboring […] assessed as inhibition of cell growth incubated for 5 days by crystal violet staining analysis; format: functional, cell-based; details: Homo sapiens, ASPC1, 120 h
AGS [20] = test: Antiproliferative activity against human AGS cells harboring […] assessed as inhibition of cell growth incubated for 5 days by crystal violet staining analysis; format: functional, cell-based; details: Homo sapiens, AGS, 120 h
NCI-H1299 = test: Antiproliferative activity against human NCI-H1299 cells harboring KRAS wild type assessed as inhibition of cell growth incubated for 5 days by crystal violet staining analysis; format: functional, cell-based; details: NCI-H1299, 120 h
[21] = Inhibition of recombinant human His6-tagged KRAS4B G12D mutant incubated for 1 hr by HTRF assay
ASPC1 [22] = test: Antitumor activity against human ASPC1 cells xenografted in mouse assessed as inhibition of tumor growth at 10 mg/kg,ip administrated twice daily for 20 consecutive days relative to control; format: functional; details: read-out: TGI
A549 = test: Antiproliferative activity against human A549 cells harboring […] assessed as inhibition of cell growth incubated for 5 days by crystal violet staining analysis; format: functional, cell-based; details: Homo sapiens, A549, 120 h
[23] = Clearance in Sprague-Dawley rat at 1 mg/kg,iv measured upto 24 hrs by LC-MS/MS analysis; format: ADME, organism-based; details: in vivo
[24] = AUC in Sprague-Dawley rat at 1 mg/kg,iv measured upto 24 hrs by LC-MS/MS analysis; format: ADME, organism-based; parameters: dose 1 mg/kg, time < 24 hrs, route iv; details: in vivo
[25] = Metabolic stability in monkey liver microsomes assessed as intrinsic clearance at 150 uM measured after 60 mins in presence of NADPH by LC-MS/MS analysis; format: ADME, Macaca mulatta, Microsome; details: rhesus monkey, read-out: CLH
ASPC1 [26] = test: Induction of apoptosis in human ASPC1 cells harboring […] assessed as early apoptotic cells at 25 uM incubated for 24 hrs by annexin V and propidium iodide staining based flow cytometry analysis (reference value: 5.22%); format: functional
[27] = Toxicity in mouse xenografted with human ASPC1 cells assessed as serum blood urea nitrogen level at 20 mg/kg,ip administrated twice daily for 20 consecutive days (reference value: 16.3 +/- 1.6 mmol/L); format: organism-based; details: in vivo
ASPC1 [28] = test: Induction of apoptosis in human ASPC1 cells harboring […] assessed as late apoptotic cells at 25 uM incubated for 24 hrs by annexin V and propidium iodide staining based flow cytometry analysis (reference value: 6.96%); format: functional
[29] = Metabolic stability in rat liver microsomes assessed as half life at 150 uM measured after 60 mins in presence of NADPH by LC-MS/MS analysis; format: ADME, Microsome
[30] = Metabolic stability in dog liver microsomes assessed as half life at 150 uM measured after 60 mins in presence of NADPH by LC-MS/MS analysis; format: ADME, Canis lupus familiaris, Microsome
AGS [31] = test: Induction of apoptosis in human AGS cells harboring […] assessed as early apoptotic cells at 25 uM incubated for 24 hrs by annexin V and propidium iodide staining based flow cytometry analysis (reference value: 4.05%); format: functional
[32] = Metabolic stability in rat liver microsomes assessed as intrinsic clearance at 150 uM measured after 60 mins in presence of NADPH by LC-MS/MS analysis; format: ADME, Microsome; details: read-out: CLH
[33] = Metabolic stability in dog liver microsomes assessed as intrinsic clearance at 150 uM measured after 60 mins in presence of NADPH by LC-MS/MS analysis; format: ADME, Canis lupus familiaris, Microsome; details: read-out: CLH
AGS [34] = test: Induction of apoptosis in human AGS cells harboring […] assessed as late apoptotic cells at 25 uM incubated for 24 hrs by annexin V and propidium iodide staining based flow cytometry analysis (reference value: 7.74%); format: functional
[35] = Metabolic stability in monkey liver microsomes assessed as half life at 150 uM measured after 60 mins in presence of NADPH by LC-MS/MS analysis; format: ADME, Macaca mulatta, Microsome; details: rhesus monkey
[36] = Toxicity in mouse xenografted with human ASPC1 cells assessed as serum creatinine level at 20 mg/kg,ip administrated twice daily for 20 consecutive days (reference value: 28.2 +/- 2.1 umol/L); format: organism-based; details: in vivo

inhibition (GTPase KRas [2]): Dose-Dependent Effect | inhibition (GTPase KRas [4]): Active | inhibition (GTPase KRas [5]): Active | inhibition (GTPase KRas [7]): Active | inhibition (GTPase KRas [10]): Dose-Dependent Effect | inhibition (GTPase KRas [11]): Dose-Dependent Effect | inhibition (GTPase KRas [12]): Dose-Dependent Effect | inhibition (GTPase KRas [14]): Active | inhibition (GTPase KRas [15]): > 90%
Structure (SMILES): C#Cc1c(F)ccc2cc(O)cc(-c3ncc4c(N5C[C@H]6CC[C@@H](C5)N6)nc(OCC56CCCN5CC(=C(F)F)C6)nc4c3F)c12 (some centres not stated)
Activity (ASPC1 [1]): Active | Activity (ASPC1 [3]): Active | Activity (ASPC1 [6]): Active | Activity (ASPC1 [8]): Active | Activity (ASPC1 [9]): Active | Activity (ASPC1 [13]): Active

inhibition (GTPase KRas [2]): Dose-Dependent Effect | inhibition (GTPase KRas [4]): Active | inhibition (GTPase KRas [5]): Active | inhibition (GTPase KRas [7]): Active | inhibition (GTPase KRas [10]): Dose-Dependent Effect | inhibition (GTPase KRas [11]): Dose-Dependent Effect | inhibition (GTPase KRas [12]): Dose-Dependent Effect | inhibition (GTPase KRas [14]): Active | inhibition (GTPase KRas [15]): > 90%
Structure (SMILES): C#Cc1c(F)ccc2cc(N)cc(-c3ncc4c(N5C[C@H]6CC[C@@H](C5)N6)nc(OCC56CCCN5CC(=C(F)F)C6)nc4c3F)c12 (some centres not stated)
Activity (ASPC1 [1]): Active | Activity (ASPC1 [3]): Active | Activity (ASPC1 [6]): Active | Activity (ASPC1 [8]): Active | Activity (ASPC1 [9]): Active | Activity (ASPC1 [13]): Active

Second part, the compound before the results:

Structure (SMILES): [2H]C([2H])(Oc1nc(NCC2(N(C)C)CCC2)c2cnc(-c3cc(O)cc4ccc(F)c(C#C)c34)c(F)c2n1)C12CCCN1CC(=C(F)F)C2 (configuration not stated)
IC50 (GTPase KRas [16]): 18.5 nM | inhibition in vivo at 20 mg/kg (ASPC1 [17]): 68.4% | half-life [18]: 6.91 h | IC50 (ASPC1 [19]): 1.7 nM | IC50 (AGS [20]): 0.6 nM | IC50 (NCI-H1299): 1820 nM | IC50 [21]: 1.21 nM | inhibition in vivo at 10 mg/kg (ASPC1 [22]): 54.7% | IC50 (A549): 499 nM | clearance [23]: 2 L/h/kg | AUC at 24 h [24]: 0.562 µg·h/mL

Structure (SMILES): C#Cc1c(F)ccc2cc(O)cc(-c3ncc4c(N5C[C@H]6CC[C@@H](C5)N6)nc(OC[C@@]56CCCN5C[C@H](F)C6)nc4c3F)c12
inhibition in vivo at 20 mg/kg (ASPC1 [17]): 73.3% | microsomal CLint at 150 µM [25]: 40.6 µL/min/mg | half-life [18]: 1.1 h | Activity (ASPC1 [26]): 8.65% | Activity [27]: 14 mmol/L | Activity (ASPC1 [28]): 12.1% | half-life at 150 µM [29]: 2.88 h | IC50 (ASPC1 [19]): 7.9 nM | half-life at 150 µM [30]: 1.38 h | Activity (AGS [31]): 9.27% | IC50 (AGS [20]): 1.4 nM | IC50 (NCI-H1299): > 5000 nM | microsomal CLint at 150 µM [32]: 8 µL/min/mg | microsomal CLint at 150 µM [33]: 16.8 µL/min/mg | IC50 [21]: 1.24 nM | IC50 (A549): > 5000 nM | clearance [23]: 5.5 L/h/kg | AUC at 24 h [24]: 0.188 µg·h/mL | Activity (AGS [34]): 10.4% | half-life at 150 µM [35]: 0.568 h | Activity [36]: 24.7 µmol/L

Structure (SMILES): C#Cc1c(F)ccc2cc(O)cc(-c3ncc4c(NCC5(N(C)C)CCC5)nc(OCC56CCCN5CC(=C(F)F)C6)nc4c3F)c12 (configuration not stated)
Activity (ASPC1 [1]): Active | inhibition (GTPase KRas [2]): Dose-Dependent Effect | Activity (ASPC1 [3]): Active | Activity (ASPC1 [6]): Active | Activity (ASPC1 [8]): Active | Activity (ASPC1 [9]): Active | inhibition (GTPase KRas [10]): Dose-Dependent Effect | inhibition (GTPase KRas [11]): Dose-Dependent Effect | inhibition (GTPase KRas [12]): Dose-Dependent Effect | Activity (ASPC1 [13]): Active
